One assay has as its system HT-29. The experiment in a line: Cytotoxicity against human HT-29 cells by MTT assay. The class given is functional, cell-based. A general note: Tetrazolium assays rely on reduction of a dye to a coloured formazan, in cell work by metabolically active cells.
The subject of a further assay is HCT-116. In words: Cytotoxicity against human HCT116 cells by MTT assay. It is filed as functional, cell-based.

In the case of `C[C@H]1CC[C@@]2(OC1)O[C@H]1C[C@H]3[C@@H]4CC[C@H]5C[C@@H](O[C@@H]6[C@@H](O)[C@H](OC[C@H]7O[C@@H](O[C@@H]8[C@@H](O)[C@H](O[C@H]9[C@H](O)[C@@H](CO)O[C@@H](O[C@@H]%10[C@H](O)[C@@H](O[C@@H]%11O[C@@H](C)[C@H](O)[C@@H](O)[C@H]%11O)[C@H](O)O[C@@H]%10CO)[C@@H]9O[C@@H]9OC[C@H](O)[C@H](O)[C@H]9O)OC[C@H]8O)[C@H](O)[C@@H](O[C@@H]8O[C@H](CO[C@@H]9O[C@@H](CO)[C@H](O)[C@H]9O)[C@@H](O)[C@H](O)[C@H]8O)[C@@H]7O)O[C@H]6CO)CC[C@]5(C)[C@H]4CC[C@]3(C)[C@H]1[C@@H]2C` [ORCHIDASTROSIDE C], the IC50 (as a rule, the concentration at which inhibition is half-maximal) in the assay on HT-29 worked out at 3.6 µM; in the assay with HCT-116, 1.35 µM.

As to `C[C@H]1CC[C@@]2(OC1)O[C@H]1C[C@H]3[C@@H]4CC[C@H]5C[C@@H](O[C@@H]6[C@@H](O)[C@H](OC[C@H]7O[C@@H](O[C@@H]8[C@@H](O)[C@H](O[C@H]9[C@H](O)[C@@H](CO)O[C@@H](O[C@@H]%10[C@H](O)[C@@H](O)[C@H](O)O[C@@H]%10CO)[C@@H]9O[C@@H]9O[C@H](CO)[C@H](O)[C@H](O)[C@H]9O)O[C@H](CO)[C@H]8O)[C@H](O)[C@@H](O[C@@H]8O[C@H](CO[C@@H]9O[C@@H](CO)[C@H](O)[C@H]9O)[C@@H](O)[C@H](O)[C@H]8O)[C@@H]7O)O[C@H]6CO)[C@H](O)C[C@]5(C)[C@H]4CC[C@]3(C)[C@H]1[C@@H]2C` [ORCHIDASTROSIDE E], the IC50 in the assay with HT-29 and with HCT-116 was 7 µM each time.

With `C[C@H]1CC[C@@]2(OC1)O[C@H]1C[C@H]3[C@@H]4CC[C@H]5C[C@@H](O[C@@H]6[C@@H](O)[C@H](OC[C@H]7O[C@@H](O[C@@H]8[C@@H](O)[C@H](O[C@H]9[C@H](O)[C@@H](CO)O[C@@H](O[C@@H]%10[C@H](O)[C@@H](O)[C@H](O)O[C@@H]%10CO)[C@@H]9O[C@@H]9O[C@H](CO)[C@H](O)[C@H](O)[C@H]9O)O[C@H](CO)[C@H]8O)[C@H](O)[C@@H](O[C@@H]8OC[C@@H](O)[C@H](O)[C@H]8O)[C@@H]7O)O[C@H]6CO)[C@H](O)C[C@]5(C)[C@H]4CC[C@]3(C)[C@H]1[C@@H]2C` [ORCHIDASTROSIDE F], the IC50 in the assay with HT-29 came out at 8.87 µM; with HCT-116 it was 2.12 µM.

For the origin of these results see ChEMBL document CHEMBL1154847, “Steroidal saponins from Chlorophytum orchidastrum” (J Nat Prod, 2010).
